Columns and labels:
[1] = human, in vivo
[2] = Single-dose food effect study in dogs; assay type: in vivo; conditions: formulation that did not comprise at least one acidulant
Description: Such food effects can cause difficulty during human testing of drugs as the fed or fasted condition of the patient can cause exposure or bioavailability of drugs to vary widely.

[3] = Physical state and moisture uptake of 1:1 acid admixtures on storage; assay type: physicochemical; conditions: 40° C. and 75% RH, open top vial
Protocol: (§1) The mixtures were prepared in duplicate for each sample, and stored in open top, 4 mL glass vials at (1) 60° C./dry heat and (2) 40° C. and 75% relative humidity (RH).
All admixture samples and the control samples stored at the 60° C. and dry heat condition remained as dry powders.

[4] = Comparative pharmacokinetic study of F1 and F2 with lansoprazole (Example 12); assay type: in vivo, human; conditions: 800 mg fixed dose, 23 healthy subjects, body weights 55 to 106 kg
Protocol: A comparative pharmacokinetic study in healthy, human subjects was conducted comparing a 200 mg dosage strength of pharmaceutical composition F1 (as described in Example 11) with a 200 mg dosage strength pharmaceutical composition F2 (as described in Example 10).
Pharmaceutical compositions F1 and F2, along with and lansoprazole, were administered orally with approximately 240 mL of water, according to the randomization scheme. Lansoprazole was administered as 30 mg lansoprazole delayed-release capsules.
Subjects were randomized into two groups, A and B. Periods 1 and 2 were conducted as a crossover design under fasting conditions where all subjects received F1 and F2. […] A representative summary of Periods 1, 2, and 3 and the pharmaceutical compositions subjects in groups A and B will receive in each Period is found below.
Lansoprazole administration on days 1 to 9 was conducted in the morning, approximately 1.5 hours prior to administration of either F1 or F2 at hour 0 on day 4.
Subjects were randomized and received 3 out of 4 treatments in one of the following sequences: […] (i.e., Periods 1 and 2 were conducted as a crossover design under fasting conditions [Treatments A and B]). […] Each subject received each of the 3 assigned treatments on one occasion.
Treatments A and C utilized 200 mg strength F1 capsules.
Treatments B and D utilized 200 mg F2 capsules. […]

TrkB = TrkB (Homo sapiens, UniProt Q16620); conditions: background statement; cited from earlier work
TrkC = TrkC (Homo sapiens, UniProt Q16288); conditions: background statement; cited from earlier work
[5] = Excipient compatibility of 1:1 acid admixtures, HPLC after three months storage; assay type: physicochemical; conditions: 1:1 weight ratio dry powder mixture, open vial
Protocol: as §1
The HPLC traces analyses were conducted on an Agilent 1100 LC, equipped with Agilent Diode Array Detector and Chemstation Software using the conditions found in the table below.

[6] = molecular target: anaplastic lymphoma kinase (ALK) (Homo sapiens, UniProt Q9UM73); conditions: background statement; cited from earlier work
[7] = three months at 60° C. Dry Heat

TrkB, sequence (Q16620 32-822): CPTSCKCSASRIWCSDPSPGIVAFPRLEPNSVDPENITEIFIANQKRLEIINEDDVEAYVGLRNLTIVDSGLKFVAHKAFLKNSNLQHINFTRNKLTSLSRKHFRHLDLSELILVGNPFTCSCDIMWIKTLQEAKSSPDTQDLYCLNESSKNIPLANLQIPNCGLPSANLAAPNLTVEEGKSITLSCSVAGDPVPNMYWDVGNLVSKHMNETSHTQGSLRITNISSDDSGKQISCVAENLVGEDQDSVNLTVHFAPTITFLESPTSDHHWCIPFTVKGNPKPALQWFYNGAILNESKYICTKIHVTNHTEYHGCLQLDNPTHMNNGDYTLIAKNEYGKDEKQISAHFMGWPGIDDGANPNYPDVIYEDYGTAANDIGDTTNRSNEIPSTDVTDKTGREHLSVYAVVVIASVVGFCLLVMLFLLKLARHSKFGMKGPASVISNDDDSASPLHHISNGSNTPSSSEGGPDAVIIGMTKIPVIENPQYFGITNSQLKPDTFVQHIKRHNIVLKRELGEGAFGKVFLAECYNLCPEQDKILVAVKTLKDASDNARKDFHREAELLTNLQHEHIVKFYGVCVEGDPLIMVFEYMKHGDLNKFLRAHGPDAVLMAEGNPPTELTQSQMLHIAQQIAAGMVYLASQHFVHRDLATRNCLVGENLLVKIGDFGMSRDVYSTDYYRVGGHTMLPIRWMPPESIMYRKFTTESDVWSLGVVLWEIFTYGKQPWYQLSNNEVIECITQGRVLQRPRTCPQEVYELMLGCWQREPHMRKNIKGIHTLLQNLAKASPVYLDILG
TrkC, sequence (Q16288 32-839): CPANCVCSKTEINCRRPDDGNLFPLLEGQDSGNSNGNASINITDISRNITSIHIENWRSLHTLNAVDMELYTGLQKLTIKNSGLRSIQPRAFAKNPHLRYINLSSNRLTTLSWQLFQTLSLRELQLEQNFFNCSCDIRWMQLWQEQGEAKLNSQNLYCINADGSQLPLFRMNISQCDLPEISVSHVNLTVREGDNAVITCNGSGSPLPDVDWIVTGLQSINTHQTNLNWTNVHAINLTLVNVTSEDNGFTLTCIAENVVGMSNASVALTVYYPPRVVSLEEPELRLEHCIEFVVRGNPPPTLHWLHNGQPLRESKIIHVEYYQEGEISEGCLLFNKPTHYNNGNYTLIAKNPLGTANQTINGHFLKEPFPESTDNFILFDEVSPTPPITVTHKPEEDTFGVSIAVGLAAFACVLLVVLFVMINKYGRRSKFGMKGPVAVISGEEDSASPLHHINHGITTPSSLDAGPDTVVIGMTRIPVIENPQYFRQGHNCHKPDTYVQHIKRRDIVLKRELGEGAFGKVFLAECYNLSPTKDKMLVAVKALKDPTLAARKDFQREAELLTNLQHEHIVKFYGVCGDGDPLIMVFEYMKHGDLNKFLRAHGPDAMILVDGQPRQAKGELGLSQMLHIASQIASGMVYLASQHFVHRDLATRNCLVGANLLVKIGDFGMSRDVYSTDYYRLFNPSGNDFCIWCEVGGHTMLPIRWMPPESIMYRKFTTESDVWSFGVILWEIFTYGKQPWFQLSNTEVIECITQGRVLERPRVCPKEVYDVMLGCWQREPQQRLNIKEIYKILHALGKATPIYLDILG
anaplastic lymphoma kinase (ALK), sequence (Q9UM73 19-1620): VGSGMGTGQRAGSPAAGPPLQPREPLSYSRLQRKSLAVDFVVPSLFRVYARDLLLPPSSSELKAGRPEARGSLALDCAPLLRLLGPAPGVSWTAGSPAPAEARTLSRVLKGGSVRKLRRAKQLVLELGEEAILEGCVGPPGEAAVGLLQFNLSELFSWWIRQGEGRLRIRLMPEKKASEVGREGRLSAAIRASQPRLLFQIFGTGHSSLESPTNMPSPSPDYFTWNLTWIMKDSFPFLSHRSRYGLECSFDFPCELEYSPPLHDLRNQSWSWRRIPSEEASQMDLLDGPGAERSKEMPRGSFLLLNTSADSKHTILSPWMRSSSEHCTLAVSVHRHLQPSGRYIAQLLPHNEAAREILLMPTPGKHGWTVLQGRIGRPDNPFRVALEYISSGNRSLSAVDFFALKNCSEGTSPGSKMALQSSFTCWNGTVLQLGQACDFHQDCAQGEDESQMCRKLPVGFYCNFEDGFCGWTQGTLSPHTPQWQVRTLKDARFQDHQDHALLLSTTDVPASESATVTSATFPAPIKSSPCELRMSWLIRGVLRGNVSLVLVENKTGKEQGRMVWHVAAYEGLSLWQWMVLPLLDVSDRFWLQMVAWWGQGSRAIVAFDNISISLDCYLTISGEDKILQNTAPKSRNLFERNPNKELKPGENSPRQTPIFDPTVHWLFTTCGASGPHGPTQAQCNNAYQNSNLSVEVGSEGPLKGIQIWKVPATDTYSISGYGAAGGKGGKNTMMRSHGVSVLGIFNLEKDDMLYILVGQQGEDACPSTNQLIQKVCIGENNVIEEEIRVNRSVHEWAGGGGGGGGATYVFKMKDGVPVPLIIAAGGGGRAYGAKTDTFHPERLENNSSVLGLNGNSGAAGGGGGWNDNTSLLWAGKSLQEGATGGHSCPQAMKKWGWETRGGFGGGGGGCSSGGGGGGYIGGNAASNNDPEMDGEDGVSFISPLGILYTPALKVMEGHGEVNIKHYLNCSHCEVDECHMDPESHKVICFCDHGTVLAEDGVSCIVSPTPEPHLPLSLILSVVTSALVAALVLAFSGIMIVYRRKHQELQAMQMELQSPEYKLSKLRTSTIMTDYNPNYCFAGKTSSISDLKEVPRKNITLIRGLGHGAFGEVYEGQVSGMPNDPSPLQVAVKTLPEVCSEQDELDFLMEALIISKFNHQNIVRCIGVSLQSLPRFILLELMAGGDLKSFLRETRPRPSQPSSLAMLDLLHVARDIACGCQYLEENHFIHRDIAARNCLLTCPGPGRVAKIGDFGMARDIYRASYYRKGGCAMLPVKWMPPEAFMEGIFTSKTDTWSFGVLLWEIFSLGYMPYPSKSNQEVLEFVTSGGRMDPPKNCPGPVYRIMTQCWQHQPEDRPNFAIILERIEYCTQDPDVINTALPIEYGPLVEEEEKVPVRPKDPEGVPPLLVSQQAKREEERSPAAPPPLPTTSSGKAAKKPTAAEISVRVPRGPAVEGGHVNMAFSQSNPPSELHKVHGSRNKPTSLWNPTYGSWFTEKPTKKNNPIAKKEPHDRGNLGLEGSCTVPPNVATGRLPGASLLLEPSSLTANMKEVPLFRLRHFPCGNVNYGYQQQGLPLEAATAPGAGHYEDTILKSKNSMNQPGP

CN1CCN(c2ccc(C(=O)Nc3n[nH]c4ccc(Cc5cc(F)cc(F)c5)cc34)c(NC3CCOCC3)c2)CC1 [N-[5-(3,5-difluorobenzyl)-1H-indazol-3-yl]-4-(4-methyl-piperazin-1-yl)-2-(tetrahydro-pyran-4-ylamino)-benzamide]
exposures with concomitant proton pump inhibitor drugs (PPIs), such as lansoprazole [1]: variable
AUC higher when taken with food ([1]; 400 mg/m2): ~50%
Cmax higher with food ([1]; 400 mg/m2): approximately 150%
exposure levels under fed conditions compared to fasting conditions [2]: approximately 2 fold
physical state after 13 days of storage [3]: remained dry
correlation of total exposure with body weight or body surface area [4]: did not correlate with body weight or body surface area
inhibition of tyrosine kinase (TrkB): potent inhibitor
inhibition of tyrosine kinase (TrkC): potent inhibitor
% UV Purity ([5]; three months at 40° C./75% RH): 99.2%
Most abundant impurity (area %) ([5]; three months at 40° C./75% RH, listed as Control): 0.13%
Most abundant impurity (area %) ([5]; three months at 40° C./75% RH, listed as control): 0.13%
% UV Purity [5, 7]: 99.3%
Most abundant impurity (area %) [5, 7]: 0.13%
inhibition of tyrosine kinase [6]: potent inhibitor

— patent US11253515B2, “Pharmaceutical compositions and dosage forms” (IGNYTA, INC., priority 2017, dated 2022)
